Laboratory results as given in patent US5643947A, “ω-amino-α-phenylalkanonitrile derivatives” (G. D. Searle & Co., priority 1995, dated 1997).
Like-named read-outs stand apart in the source and are kept apart here.

Key:
calcium channel = conditions: DeFeudis 1989; cited from earlier work
[1] = system: serotonin-2 (5-HT2) receptors of both blood vessels and brain; conditions: DeFeudis 1989; cited from earlier work
5HT2 receptor = target: T1, 5HT2 receptor (Rattus norvegicus, UniProt P14842); experiment: 5HT2 receptor binding, 3H-ketanserin, rat frontal cortex
T1 construct: frontal cortex preparations of rat; from tissue; host or cells: rat frontal cortex
Experimental: (§1) Methodological Data for In Vitro Binding Assay of Various Receptors
(§2) KD values (Dissociation Constant) were determined by Scatchard analysis. Ki values (Inhibition Constant) were calculated according to the Cheng and Prusoff equation, using IC50 values: [formula]

[2] = target: T2, slow Ca^2+ channel binding sites (Cavia porcellus, UniProt O35505); experiment: Ca2+ receptor binding, 3H-nitrendipine competition; set-up: species or system guinea-pig; conditions: for competition curve at slow Ca^2+ channel binding sites: 3H-nitrendipine competition, in words; for Ki: guinea-pig forebrain, 3H-nitrendipine 0.2 nM, pH 7.4, 25 °C, 90 min, read-out: CA2^+ BINDING pKi (converted)
T2 construct: forebrain; from tissue; host or cells: guinea-pig forebrain
Experimental: (§3) Receptor binding experiments were conducted under the experimental conditions described in Table III. ^3 H-nitrendipine is the radioligand of choice to determine, after competition at different concentrations, the affinity of compounds of the invention, for the slow Ca^2+ channel binding sites. […] After this in vitro biochemical testing, the compounds of the invention were tested for their CA^2+ antagonist properties on isolated organs. The method used was updated from M Spedding (Nauyn-Schmiedeberg's Arch. Pharmacol., 318, 234-240, 1982) and can be summarized as follows: Aorta rings from male rats were prepared and maintained in oxygenated Krebs solution at 37° C. The contractions were induced by 40 mM K+ in the absence or in the presence of the test compound. Each test compound was tested at least twice. […] The phasic and tonic parts of each response elicited by K+ were considered separately and were expressed in % of their corresponding controls. The IC50 values (from pIC50) were estimated by plotting the % response against the log of the concentrations.
as §1, §2

α1 -adrenergic receptor = experiment: α1-adrenergic receptor binding, 3H-WB4101, rat forebrain; conditions: for α1 pKi: rat forebrain, 3H-WB-4101 1.6 nM, pH 7.4, 25 °C, 15 min, values marked (2) are estimated; for affinity for the α1 -adrenergic receptor: 3H-WB4101, rat forebrain, in words
Experimental: as §1, §2

[3] = system: femoral arterial circulation; experiment: Vasodilation in perfused hindlimb of anaesthetized dog; type: in vivo; conditions: for VASODILATION score: 30 mcg/kg injected into perfused femoral artery, vs papaverine; for vasodilator activity compared with papaverine: 30 mcg/kg, in words
Experimental: The peripheral vasodilator activity of compounds of the invention was measured in anaesthetized dog at the femoral arterial circulation. For this procedure, the femoral artery (the collaterals of which were ligated) was perfused with a constant flow rate of blood taken from aorta. The perfusion pressure measured at the femoral artery varied as a function of the resistance of the perfused area. The test compounds in diluted solvents were directly injected in the system at a dose of 30 mcg/kg. With the blood circulation rate being maintained constant, vasodilation was thus measured by a decrease of the perfusion pressure, in comparison with the action of papaverine considered as standard. The vasodilator activity was rated as follows:
+: 1/3 of the papaverine activity.
++: 2/3 of the papaverine activity.
+++: activity equal to that of papaverine (i.e. 30 to 40 mm Hg).
++++: activity higher than that of papaverine.

[4] = Acute oral toxicity in mice; conditions: mouse, in vivo, male mice, mortality over 15 days
Experimental: Compounds #1, #2 , #3, #4 and #7 were tested for acute toxicity. The acute toxicity was determined after oral administration of the test compound to mice. Compound to be tested was suspended in a 1% tragacanth gum mucilage and was administered by means of an intragastric tube to a group of three male mice per dose. The mortailty was recorded over a period of 15 days.

Aorta rings = experiment: Ca2+ antagonism on isolated rat aorta rings, contractions induced by 40 mM K+; type: cell-based; conditions: for inhibition of phasic and tonic phases of the contractions: in words
Experimental: as §3, with “The method used was updated from M Spedding (Nauyn-Schmiedeberg's Arch. Pharmacol., 318, 234-240, 1982) and can be summarized as follows: Aorta rings from male rats were prepared and maintained in oxygenated Krebs solution at 37° C.” left out

[5] = system: spontaneously hypertensive rats; experiment: Antihypertensive activity in spontaneously hypertensive rats (SHR); type: in vivo, rat; conditions: 60 mg/kg oral; for SHR score: systolic pressure up to 3 hours; for lowering of the systolic blood pressure: SHR
Experimental: The biological activity of the compounds of the invention was evaluated in vivo on spontaneous hypertensive rats. In this test, antihypertensive activity was tested by oral administration to non-anaesthetized, spontaneously hypertensive rats, on which the systolic arterial pressure was measured at the median coccygeal artery by means of a plethysmographic method [J. Roba, G. Lambelin, A. F. De Schaepdryver, Arch. Int. Pharmacodyn., 200, 182 (1972)]. The arterial pressure was measured every 30 minutes from two hours before to three hours after oral administration of 60 mg/kg of the test compounds or of a placebo (1% tragacanth gum mucilage). Only rats having a systolic pressure of 180 to 220 mmHg were used. Each compound was tested in two rats.
The antihypertensive effects were rated as follows:
+: reduction of 10 to 20 mm Hg.
++: reduction of 20 to 30 mm Hg.
+++: reduction of 30 to 40 mm Hg.
++++: reduction >40 mm Hg.

[6] = 37 °C, phasic part, read-out: AORTA/K+ pIC50 phasic (converted)
[7] = 37 °C, tonic part, read-out: AORTA/K+ pIC50 tonic (converted)
[8] = read-out: Concentration inhibiting the contractions by 50%

T1 sequence (P14842 whole entry): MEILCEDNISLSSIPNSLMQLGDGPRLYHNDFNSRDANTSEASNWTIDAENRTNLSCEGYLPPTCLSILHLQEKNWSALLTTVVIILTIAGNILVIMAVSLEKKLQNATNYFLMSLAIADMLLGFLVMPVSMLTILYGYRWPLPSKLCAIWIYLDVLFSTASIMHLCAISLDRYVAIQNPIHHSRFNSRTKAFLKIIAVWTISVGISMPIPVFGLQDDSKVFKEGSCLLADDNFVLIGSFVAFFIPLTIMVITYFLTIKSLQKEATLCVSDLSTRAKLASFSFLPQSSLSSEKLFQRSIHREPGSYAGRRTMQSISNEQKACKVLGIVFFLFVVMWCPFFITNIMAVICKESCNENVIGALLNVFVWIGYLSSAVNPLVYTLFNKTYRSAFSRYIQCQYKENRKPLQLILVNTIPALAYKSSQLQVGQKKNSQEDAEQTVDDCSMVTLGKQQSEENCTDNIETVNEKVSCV
T2 sequence (O35505 whole entry): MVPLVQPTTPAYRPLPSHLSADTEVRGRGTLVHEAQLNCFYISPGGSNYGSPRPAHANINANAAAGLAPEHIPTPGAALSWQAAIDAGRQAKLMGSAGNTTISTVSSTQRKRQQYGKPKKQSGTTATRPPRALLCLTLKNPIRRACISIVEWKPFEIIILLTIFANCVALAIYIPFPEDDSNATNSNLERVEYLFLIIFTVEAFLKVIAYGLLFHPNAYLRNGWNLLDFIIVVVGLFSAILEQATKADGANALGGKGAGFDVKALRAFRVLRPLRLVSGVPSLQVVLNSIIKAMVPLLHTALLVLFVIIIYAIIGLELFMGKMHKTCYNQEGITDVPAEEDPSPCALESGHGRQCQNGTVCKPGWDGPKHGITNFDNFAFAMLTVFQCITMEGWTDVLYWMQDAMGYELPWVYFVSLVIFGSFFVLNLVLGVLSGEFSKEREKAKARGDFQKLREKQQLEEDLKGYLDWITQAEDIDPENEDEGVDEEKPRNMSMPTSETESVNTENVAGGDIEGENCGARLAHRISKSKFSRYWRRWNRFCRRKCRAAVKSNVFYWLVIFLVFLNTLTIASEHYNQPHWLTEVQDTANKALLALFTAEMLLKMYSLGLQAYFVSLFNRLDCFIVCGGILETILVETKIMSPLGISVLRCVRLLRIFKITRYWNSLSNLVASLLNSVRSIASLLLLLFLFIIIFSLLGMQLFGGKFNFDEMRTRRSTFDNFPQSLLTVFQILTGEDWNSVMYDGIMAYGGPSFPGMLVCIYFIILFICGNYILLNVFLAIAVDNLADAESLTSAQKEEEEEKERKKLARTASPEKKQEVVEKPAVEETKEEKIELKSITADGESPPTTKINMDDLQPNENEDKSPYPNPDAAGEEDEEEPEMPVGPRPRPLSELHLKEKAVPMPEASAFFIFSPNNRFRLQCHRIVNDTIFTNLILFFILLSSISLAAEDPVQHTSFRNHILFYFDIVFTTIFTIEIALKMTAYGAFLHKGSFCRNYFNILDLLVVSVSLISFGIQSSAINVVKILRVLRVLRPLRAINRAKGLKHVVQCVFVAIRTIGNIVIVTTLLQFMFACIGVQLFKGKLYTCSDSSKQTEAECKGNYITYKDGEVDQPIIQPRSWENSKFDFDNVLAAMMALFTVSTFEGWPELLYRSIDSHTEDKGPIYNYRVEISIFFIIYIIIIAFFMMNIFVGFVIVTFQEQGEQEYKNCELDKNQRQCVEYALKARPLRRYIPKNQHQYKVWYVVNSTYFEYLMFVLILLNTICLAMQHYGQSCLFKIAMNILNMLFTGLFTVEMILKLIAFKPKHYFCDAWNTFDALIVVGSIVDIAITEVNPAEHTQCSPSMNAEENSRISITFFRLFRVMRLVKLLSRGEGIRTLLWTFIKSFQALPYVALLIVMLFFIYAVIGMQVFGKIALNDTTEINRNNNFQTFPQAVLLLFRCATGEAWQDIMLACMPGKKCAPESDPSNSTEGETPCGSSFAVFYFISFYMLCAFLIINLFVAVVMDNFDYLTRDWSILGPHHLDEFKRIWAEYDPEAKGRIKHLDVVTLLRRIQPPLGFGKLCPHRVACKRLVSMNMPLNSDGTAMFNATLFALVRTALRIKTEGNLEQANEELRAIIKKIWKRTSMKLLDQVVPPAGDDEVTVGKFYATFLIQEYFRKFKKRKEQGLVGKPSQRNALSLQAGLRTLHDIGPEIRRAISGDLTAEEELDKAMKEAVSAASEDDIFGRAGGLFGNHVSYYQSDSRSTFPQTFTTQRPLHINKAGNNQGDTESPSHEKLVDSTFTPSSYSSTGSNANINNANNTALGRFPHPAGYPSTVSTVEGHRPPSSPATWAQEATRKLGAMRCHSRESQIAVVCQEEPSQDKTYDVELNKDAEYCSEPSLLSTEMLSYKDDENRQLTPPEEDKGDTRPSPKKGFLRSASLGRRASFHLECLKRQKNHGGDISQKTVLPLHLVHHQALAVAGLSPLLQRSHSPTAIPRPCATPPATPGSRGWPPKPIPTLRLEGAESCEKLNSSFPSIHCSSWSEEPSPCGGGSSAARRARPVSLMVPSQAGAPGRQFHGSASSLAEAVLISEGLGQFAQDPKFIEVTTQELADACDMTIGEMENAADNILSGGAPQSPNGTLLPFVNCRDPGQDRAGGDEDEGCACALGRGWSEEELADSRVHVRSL

Structure (SMILES)	Ki (5HT2 receptor) [nM]	competition curve at slow Ca^2+ channel binding sites [2]	Ki [2] [nM]	α1 pKi (α1 -adrenergic receptor)	VASODILATION score [3]	LD50 at 360 h [4] [mg/kg]	affinity for the α1 -adrenergic receptor (α1 -adrenergic receptor)	other results
CC(C)[C@@](C#N)(CCCN(C)CCc1ccccc1)c1ccccc1 [(S)-emopamil]								calcium channel blocking activity (calcium channel): showing calcium channel blocking activity; action at serotonin-2 (5-HT2) receptors [1]: antagonist at serotonin-2 (5-HT2) receptors
COc1ccc(C(C#N)(CCCN(C)CCCCCc2ccccc2)C(C)C)cc1OC (centres unmarked) [compound 3, 5-[5-(phenylpentyl)methylamino]-2-(3,4-dimethoxyphenyl)-2-isopropylvaleronitrile]	10	reaching the non-specific level	251	≤ 6	+++ (activity equal to that of papaverine (i.e. 30 to 40 mm Hg).)	470		
COc1ccc(C(C#N)(CCCN(C)CCCCc2ccccc2)C(C)C)cc1OC (centres unmarked) [Compound #2, 5-[(4-phenylbutyl)methylamino]-2-(3,4-dimethoxyphenyl)-2-isopropylvaleronitrile]	100	does not reach the non-specific base-line		7	++++	350	display affinity for the α1 -adrenergic receptor	IC50 (Aorta rings; [6]): 63.1 nM; IC50 (Aorta rings; [7]): 100 nM; inhibition of phasic and tonic phases of the contractions (Aorta rings): similarly inhibited; IC50 (Aorta rings; [8]): 60 nM; vasodilator activity compared with papaverine [3]: more active than papaverine; SHR score [5]: ++++ (reduction >40 mm Hg.); lowering of the systolic blood pressure [5]: more than 40 mm Hg
COc1ccc(C(C#N)(CCCN(C)CC=Cc2ccccc2)C(C)C)cc1OC (centres unmarked) [compound 7]		does not reach the non-specific base-line		6.8		> 1000	display affinity for the α1 -adrenergic receptor	
COc1ccc(C(C#N)(CCCN(C)CCCc2ccccc2)C(C)C)cc1OC (centres unmarked) [compound 4]	31.6	does not reach the non-specific base-line		≤ 6		540		
CCOC(=O)C1=C(C)NC(C)=C(C(=O)OC)C1c1cccc([N+](=O)[O-])c1 (centres unmarked) [nitrendipine, reference compound]								Kd [2]: 0.2 nM
CCCCCCCCN(CCCC(C#N)(c1ccc(OC)c(OC)c1)C(C)C)Cc1ccccc1 (centres unmarked) [compound 5]	> 1000	reaching the non-specific level	501	≤ 6				
CCCCCCCCCCN(C)CCCC(C#N)(c1ccc(OC)c(OC)c1)C(C)C (centres unmarked) [compound 6, 5-[(n-decyl)methylamino]-2-(3,4-dimethoxyphenyl)-2-isopropylvaleronitrile]	100	reaching the non-specific level	39.8	< 6				IC50 (Aorta rings; 37 °C, one value printed for phasic/tonic, read-out: AORTA/K+ pIC50 phasic/tonic (converted)): ≥ 1000 nM
CCCCCCCCNCCCC(C#N)(c1ccc(OC)c(OC)c1)C(C)C (centres unmarked) [compound 8]	158	reaching the non-specific level	126	6.7			display affinity for the α1 -adrenergic receptor	
CCCCCCCCN(C)CCCC(C#N)(c1ccc(OC)c(OC)c1)C(C)C (centres unmarked) [Compound #1, 5-[(n-octyl)methylamino]-2-(3,4-dimethoxyphenyl) -2-isopropyl-valeronitrile]	100	does not reach the non-specific base-line		≤ 6	++++	> 300		IC50 (Aorta rings; [6]): 200 nM; IC50 (Aorta rings; [7]): 200 nM; inhibition of phasic and tonic phases of the contractions (Aorta rings): similarly inhibited; IC50 (Aorta rings; [8]): 200 nM; vasodilator activity compared with papaverine [3]: more active than papaverine; SHR score [5]: ++++ (reduction >40 mm Hg.); lowering of the systolic blood pressure [5]: more than 40 mm Hg
